Experimental findings from patent publication US9303012B2, “Pyridine-2-amides useful as CB2 agonists” (Hoffmann-La Roche Inc., priority 2012, dated 2016) are described below.

The target of one test is human CB1 receptors (Homo sapiens (Human), UniProt P21554). Description: functional cAMP assay, CHO cells expressing human CB1 receptors. Type of test: cell-based. The method, then: (§1) CHO cells expressing human CB1 or CB2 receptors are seeded 17-24 hours prior to the experiment 50.000 cells per well in a black 96 well plate with flat clear bottom (Corning Costar #3904) in DMEM (Invitrogen No. 31331), 1×HT supplement, with 10% fetal calf serum and incubated at 5% CO2 and 37° C. in a humidified incubator. The growth medium was exchanged with Krebs Ringer Bicarbonate buffer with 1 mM IBMX and incubated at 30° C. for 30 min. Compounds were added to a final assay volume of 100 μl and incubated for 30 min at 30° C. Using the cAMP-Nano-TRF detection kit the assay (Roche Diagnostics) was stopped by the addition of 50 μl lysis reagent (Tris, NaCl, 1.5% Triton X100, 2.5% NP40, 10% NaN3) and 50 μl detection solutions (20 μM mAb Alexa700-cAMP 1:1, and 48 μM Ruthenium-2-AHA-cAMP) and shaken for 2 h at room temperature. The time-resolved energy transfer is measured by a TRF reader (Evotec Technologies GmbH), equipped with a ND:YAG laser as excitation source. The plate is measured twice with the excitation at 355 nm and at the emission with a delay of 100 ns and a gate of 100 ns, total exposure time 10 s at 730 (bandwidth 30 nm) or 645 nm (bandwidth 75 nm), respectively. The FRET signal is calculated as follows: FRET=T730-Alexa730-P(T645-B645) with P=Ru730-B730/Ru645-B645, where T730 is the test well measured at 730 nM, T645 is the test well measured at 645 nm, B730 and B645 are the buffer controls at 730 nm and 645 nm, respectively. cAMP content is determined from the function of a standard curve spanning from 10 μM to 0.13 nM cAMP.
Sequence of human CB1 receptors (P21554 whole entry): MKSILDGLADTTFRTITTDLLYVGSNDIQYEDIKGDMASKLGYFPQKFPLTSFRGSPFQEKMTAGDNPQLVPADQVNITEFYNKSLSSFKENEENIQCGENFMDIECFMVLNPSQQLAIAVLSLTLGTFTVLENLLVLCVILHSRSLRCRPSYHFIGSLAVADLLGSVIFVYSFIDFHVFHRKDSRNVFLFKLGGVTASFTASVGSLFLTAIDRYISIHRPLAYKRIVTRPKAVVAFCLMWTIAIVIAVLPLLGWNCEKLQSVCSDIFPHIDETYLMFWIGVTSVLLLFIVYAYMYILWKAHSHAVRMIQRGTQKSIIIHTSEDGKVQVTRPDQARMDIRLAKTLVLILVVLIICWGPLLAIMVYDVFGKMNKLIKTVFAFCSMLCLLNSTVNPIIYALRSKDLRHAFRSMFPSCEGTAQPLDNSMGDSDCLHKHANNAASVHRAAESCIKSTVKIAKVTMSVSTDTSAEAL
(§2) EC50 values were determined using Activity Base analysis (ID Business Solution, Limited). The EC50 values for a wide range of cannabinoid agonists generated from this assay were in agreement with the values published in the scientific literature.

The next test addresses human CB2 receptors (Homo sapiens (Human), UniProt P34972). Nature of the test: functional cAMP assay, CHO cells expressing human CB2 receptors. Type of test: cell-based. The method, then:
as §1, §2
(In general: Changes in cAMP serve as a functional read-out for many G protein-coupled receptors.)

Sequence of human CB2 receptors (P34972 whole entry): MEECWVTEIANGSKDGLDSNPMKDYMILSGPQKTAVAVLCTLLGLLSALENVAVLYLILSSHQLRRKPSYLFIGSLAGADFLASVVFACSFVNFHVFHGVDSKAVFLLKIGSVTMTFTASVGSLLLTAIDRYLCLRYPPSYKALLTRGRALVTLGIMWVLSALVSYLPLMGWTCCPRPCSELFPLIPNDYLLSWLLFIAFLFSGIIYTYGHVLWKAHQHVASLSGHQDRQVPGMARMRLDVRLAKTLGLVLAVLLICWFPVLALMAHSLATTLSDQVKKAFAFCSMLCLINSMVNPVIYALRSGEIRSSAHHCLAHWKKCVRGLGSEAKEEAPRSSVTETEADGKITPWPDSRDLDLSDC

In general, EC50 refers to the concentration that produces a half-maximal response. A low value points to a more potent agent. In the case of `CN(C=O)C(=O)c1ccc(N2CC(F)(F)C2)c(OCC2CC2)n1` [Example 51, 6-(Cyclopropylmethoxy)-5-(3,3-difluoroazetidin-1-yl)-N-formyl-N-methylpyridine-2-carboxamide], the EC50 at human CB1 receptors was above 10000 nM; on human CB2 receptors it was 789 nM.

On to `CN(C(=O)c1ccc(N2CC(F)(F)C2)c(OCC2CC2)n1)c1ccccc1` [Example 52, 6-Cyclopropylmethoxy-5-(3,3-difluoro-azetidin-1-yl)-pyridine-2-carboxylic acid methyl-phenyl-amide], for which the values for the EC50 on human CB1 receptors and at human CB2 receptors were above 10000 nM and 645 nM, respectively.

On to `O=C(c1ccc(N2CC(F)(F)C2)c(OCC2CC2)n1)N1CC(F)(F)C[C@H]1CO` [Example 53, [6-Cyclopropylmethoxy-5-(3,3-difluoro-azetidin-1-yl)-pyridin-2-yl]-((S)-4,4-difluoro-2-hydroxymethyl-pyrrolidin-1-yl)-methanone], for which the EC50 on human CB1 receptors was above 10000 nM; on human CB2 receptors, 3.7 nM.

On to `Cc1cn(C)nc1N(C)C(=O)c1ccc(N2CC(F)(F)C2)c(OCC2CC2)n1` [Example 54, 6-Cyclopropylmethoxy-5-(3,3-difluoro-azetidin-1-yl)-pyridine-2-carboxylic acid (1,4-dimethyl-1H-pyrazol-3-yl)-methyl-amide], for which the EC50 is above 10000 nM at human CB1 receptors and 462 nM on human CB2 receptors.

In the case of `CC1(C)CN(C(=O)c2ccc(N3CC(F)(F)C3)c(OCC3CC3)n2)CCO1` [Example 55, [6-Cyclopropylmethoxy-5-(3,3-difluoro-azetidin-1-yl)-pyridin-2-yl]-(2,2-dimethyl-morpholin-4-yl)-methanone], the EC50 at human CB1 receptors was above 10000 nM; on human CB2 receptors, 55.4 nM.

In the case of `CN1C(=O)CN(C(=O)c2ccc(N3CC(F)(F)C3)c(OCC3CC3)n2)[C@@H]1C(C)(C)C` [Example 56, (R)-2-tert-Butyl-1-[6-cyclopropylmethoxy-5-(3,3-difluoro-azetidin-1-yl)-pyridine-2-carbonyl]-3-methyl-imidazolidin-4-one], the EC50 was above 10000 nM on human CB1 receptors and 36.9 nM on human CB2 receptors.

In the case of `O=C(c1ccc(N2CC(F)(F)C2)c(OCC2CC2)n1)N1CCCC12CC2` [Example 57, (4-Aza-spiro[2.4]hept-4-yl)-[6-cyclopropylmethoxy-5-(3,3-difluoro-azetidin-1-yl)-pyridin-2-yl]-methanone], the EC50 at human CB1 receptors is above 10000 nM; at human CB2 receptors, 1.8 nM.

With `CC1(C)CC(C2CCN(C(=O)c3ccc(N4CC(F)(F)C4)c(OCC4CC4)n3)CC2)C(=O)N1` (stereo not drawn) [Example 58, 3-{1-[6-Cyclopropylmethoxy-5-(3,3-difluoro-azetidin-1-yl)-pyridine-2-carbonyl]-piperidin-4-yl}-5,5-dimethyl-pyrrolidin-2-one], the results for the EC50 at human CB1 receptors and on human CB2 receptors were above 10000 nM and 594 nM, respectively.

Consider `O=C(c1ccc(N2CC(F)(F)C2)c(OCC2CC2)n1)N1C[C@@H]2CC[C@H]1C2` [Example 59, (1S,4R)-2-Aza-bicyclo[2.2.1]hept-2-yl-[6-cyclopropylmethoxy-5-(3,3-difluoro-azetidin-1-yl)-pyridin-2-yl]-methanone], for which the EC50 on human CB1 receptors is above 10000 nM; on human CB2 receptors, 14.2 nM.

`NC(=O)[C@@H]1CC(F)(F)CN1C(=O)c1ccc(N2CC(F)(F)C2)c(OCC2CC2)n1` [Example 60, (S)-1-[6-Cyclopropylmethoxy-5-(3,3-difluoro-azetidin-1-yl)-pyridine-2-carbonyl]-4,4-difluoro-pyrrolidine-2-carboxylic acid amide]: the results for the EC50 at human CB1 receptors and on human CB2 receptors were above 10000 nM and 3.08 nM, respectively.

With `CC1(O)CCN(C(=O)c2ccc(N3CC(F)(F)C3)c(OCC3CC3)n2)CC1` [Example 61, [6-Cyclopropylmethoxy-5-(3,3-difluoro-azetidin-1-yl)-pyridin-2-yl]-(4-hydroxy-4-methyl-piperidin-1-yl)-methanone], the EC50 is above 10000 nM at human CB1 receptors and 391 nM at human CB2 receptors.

As to `O=C(c1ccc(N2CC(F)(F)C2)c(OCC2CC2)n1)N1C[C@@H]2C[C@H]1CS2` [Example 62, [6-Cyclopropylmethoxy-5-(3,3-difluoro-azetidin-1-yl)-pyridin-2-yl]-(1S,4S)-2-thia-5-aza-bicyclo[2.2.1]hept-5-yl-methanone], the EC50 on human CB1 receptors is above 10000 nM; on human CB2 receptors, 9.1 nM.

For the molecule `O=C(c1ccc(N2CC(F)(F)C2)c(OCC2CC2)n1)N1C[C@@H]2C[C@H]1CN2Cc1ccccc1` [Example 63, ((1S,4S)-5-Benzyl-2,5-diaza-bicyclo[2.2.1]hept-2-yl)-[6-cyclopropylmethoxy-5-(3,3-difluoro-azetidin-1-yl)-pyridin-2-yl]-methanone], the EC50 on human CB1 receptors is above 10000 nM; at human CB2 receptors, 198 nM.

Consider `CC1C(c2ccccc2)CCCN1C(=O)c1ccc(N2CC(F)(F)C2)c(OCC2CC2)n1` (stereo not drawn) [Example 64, [6-Cyclopropylmethoxy-5-(3,3-difluoro-azetidin-1-yl)-pyridin-2-yl]-(2-methyl-3-phenyl-piperidin-1-yl)-methanone], for which the figures for the EC50 on human CB1 receptors and on human CB2 receptors were above 10000 nM and 40.5 nM, respectively.

As for `O=C(c1ccc(N2CC(F)(F)C2)c(OCC2CC2)n1)N1C[C@@H]2C[C@H]1CO2` [Example 65, [6-Cyclopropylmethoxy-5-(3,3-difluoro-azetidin-1-yl)-pyridin-2-yl]-(1S,4S)-2-oxa-5-aza-bicyclo[2.2.1]hept-5-yl-methanone], the EC50 at human CB1 receptors is above 10000 nM; at human CB2 receptors it was 100 nM.

`CC1(C)CC(O)CCN1C(=O)c1ccc(N2CC(F)(F)C2)c(OCC2CC2)n1` (stereo not drawn) [Example 66, [6-Cyclopropylmethoxy-5-(3,3-difluoro-azetidin-1-yl)-pyridin-2-yl]-(4-hydroxy-2,2-dimethyl-piperidin-1-yl)-methanone]: the EC50 on human CB1 receptors is above 10000 nM; on human CB2 receptors, 5.6 nM.

Turning to `CCOC(=O)C1CCCN(C(=O)c2ccc(N3CC(F)(F)C3)c(OCC3CC3)n2)C1c1ccccc1` (stereo not drawn) [Example 67, 1-[6-Cyclopropylmethoxy-5-(3,3-difluoro-azetidin-1-yl)-pyridine-2-carbonyl]-2-phenyl-piperidine-3-carboxylic acid ethyl ester], the EC50 is above 10000 nM on human CB1 receptors and 368 nM on human CB2 receptors.

In the case of `NC(=O)[C@@H]1CC(F)(F)CN1C(=O)c1ccc(C2CC2)c(OCC2CC2)n1` [Example 68, (S)-1-(5-Cyclopropyl-6-cyclopropylmethoxy-pyridine-2-carbonyl)-4,4-difluoro-pyrrolidine-2-carboxylic acid amide], the EC50 on human CB1 receptors was above 10000 nM; at human CB2 receptors, 2.7 nM.

In the case of `NC(=O)[C@@H]1C[C@H](F)CN1C(=O)c1ccc(C2CC2)c(OCC2CC2)n1` [Example 69, (2S,4S)-1-(5-Cyclopropyl-6-cyclopropylmethoxy-pyridine-2-carbonyl)-4-fluoro-pyrrolidine-2-carboxylic acid amide], the results for the EC50 at human CB1 receptors and at human CB2 receptors were above 10000 nM and 1040 nM, respectively.

For the molecule `O=C(c1ccc(N2CC(F)(F)C2)c(OCC2CC2)n1)N1CC2CCOC2C1` (stereo not drawn) [Example 70, [6-Cyclopropylmethoxy-5-(3,3-difluoro-azetidin-1-yl)-pyridin-2-yl]-(hexahydrofuro[2,3-c]pyrrol-5-yl)-methanone], the EC50 on human CB1 receptors is above 10000 nM; on human CB2 receptors, 104 nM.

Regarding `O=C(c1ccc(N2CC(F)(F)C2)c(OCC2CC2)n1)N1CC2(C1)CS(=O)(=O)C2` [Example 71, [6-Cyclopropylmethoxy-5-(3,3-difluoro-azetidin-1-yl)-pyridin-2-yl]-(2,2-dioxo-2λ6-thia-6-aza-spiro[3.3]hept-6-yl)-methanone], the EC50 was above 10000 nM at human CB1 receptors and 444 nM at human CB2 receptors.

Consider `CC(C)(C)N(CCC(N)=O)C(=O)c1ccc(N2CC(F)(F)C2)c(OCC2CC2)n1` [Example 72, 6-Cyclopropylmethoxy-5-(3,3-difluoro-azetidin-1-yl)-pyridine-2-carboxylic acid tert-butyl-(2-carbamoyl-ethyl)-amide], for which the EC50 at human CB1 receptors is above 10000 nM; at human CB2 receptors it was 664 nM.

Turning to `NC(=O)[C@@H]1CCCN1C(=O)c1ccc(C2CC2)c(OCC2CC2)n1` [Example 73, (S)-1-(5-Cyclopropyl-6-cyclopropylmethoxy-pyridine-2-carbonyl)-pyrrolidine-2-carboxylic acid amide], the EC50 at human CB1 receptors was above 10000 nM; at human CB2 receptors, 636 nM.

Regarding `CC(C)(C)OC(=O)N1CCC2(CCCN2C(=O)c2ccc(N3CC(F)(F)C3)c(OCC3CC3)n2)CC1` [Example 74, 1-[6-Cyclopropylmethoxy-5-(3,3-difluoro-azetidin-1-yl)-pyridine-2-carbonyl]-1,8-diaza-spiro[4.5]decane-8-carboxylic acid tert-butyl ester], the EC50 is above 10000 nM on human CB1 receptors and 11.5 nM on human CB2 receptors.
